Results on 4 compounds are retold here after ChEMBL document CHEMBL1201862, “PubChem BioAssay data set” (2004).

Common to all, as to assay: NCI-60 cell line screen, 48 h
Assay [1] relates to DU-145.
Assay [2] concerns HCT-116.
The test system of assay [3] is HCT-15.
Assay [4] concerns HOP-62.
For assay [5], the system named is HOP-92.
Assay [6] deals with HT-29.
Assay [7] deals with K562.
The subject of assay [8] is KM12.
Assay [9] relates to MDA-MB-231.
For assay [10], the system named is MDA-N.
Assay [11] has as its system NCI-H23.
The test system of assay [12] is NCI-H522.
Assay [13] has as its system NCI/ADR-RES.
Assay [14] deals with OVCAR-8.
The subject of assay [15] is PC-3.
For assay [16], the system named is SF-539.
For assay [17], the system named is SK-MEL-28.
For assay [18], the system named is SNB-19.
Assay [19] deals with SR.
The test system of assay [20] is T47D.

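Growth conditions: 96-well plates. Treatment: test compound, 48 hours, 5 concentrations. Analysis: linear interpolation between bracketing concentrations; unreached endpoints set to highest concentration. At the GI50, growth is halved.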 Activity calls are given as the source filed them. Cut-off read from the data, not from the text of the source: active = GI50 up to about 1.1 µM and inactive = higher. Bounds are passed on as bounds.

On to `CC(C)(C)c1cc(/C=C(\C#N)C(=O)NCCO)cc(C(C)(C)C)c1O`, for which the GI50 is 34 µM (inactive) in assay [1]; 16.9 µM (inactive) in assay [2]; 20.7 µM in assay [3]; 21.2 µM (inactive) in assay [4]; 45.7 µM (inactive) in [5]; 21 µM (inactive) in [6]. Also, the GI50 was 24 µM (inactive) in assay [7]; 21.5 µM (inactive) in [8]; 18.4 µM (inactive) in assay [9]; 18.7 µM (inactive) in [10]; 27.9 µM (inactive) in [11]; 16.5 µM (inactive) in assay [12]. Besides, the GI50 in assay [13] is 23 µM (inactive); in assay [14], 38.6 µM (inactive); in [15] it was 18.2 µM (inactive); in assay [16] it was 18.3 µM (inactive); in assay [17] it was 21.6 µM (inactive); in assay [18], 32.1 µM (inactive). Moreover, the figures for the GI50 in assay [19] and in [20] were 17.5 µM (inactive) and 20.1 µM (inactive), respectively.

Regarding `Cc1sc2ncnc(NCCc3ccccc3)c2c1C`, the GI50 was 18.8 µM (inactive) in assay [1]; 6.04 µM (inactive) in assay [2]; 21.5 µM in assay [3]; 12.8 µM (inactive) in assay [4]; 0.94 µM (active) in assay [5]; 14.6 µM (inactive) in [6]. Besides, the GI50 in assay [7] is 2 µM (inactive); in assay [8], 13.4 µM (inactive); in [9], 14.6 µM (inactive); in assay [10], 10.1 µM (inactive); in assay [11] it was 10.9 µM (inactive); in [12], 8.59 µM (inactive). Besides, the GI50 in [13] is 6.22 µM (inactive); in assay [14], 11.8 µM (inactive); in assay [15], 17.3 µM (inactive); in assay [16] it was 15 µM (inactive); in [17] it was 17.8 µM (inactive); in assay [18], 23.7 µM (inactive). Besides, the figures for the GI50 in [19] and in assay [20] were 0.579 µM (active) and 2.29 µM (inactive), respectively.

Regarding `CC(=O)CC(=O)Nc1ccc2ccccc2c1`, the GI50 in assay [1] is > 100 µM (inactive); in assay [2] it was > 100 µM (inactive); in [3], 95.3 µM; in assay [4], > 100 µM (inactive); in assay [5], > 100 µM (inactive); in [6], > 100 µM (inactive). The GI50 in assay [7] was 46.9 µM (inactive); in assay [8], > 100 µM (inactive); in assay [9], > 100 µM (inactive); in assay [10] it was > 100 µM (inactive); in assay [11], 86.9 µM (inactive); in assay [12], 47.2 µM (inactive). For the same compound, the GI50 was 67.3 µM (inactive) in assay [13]; > 100 µM (inactive) in assay [14]; > 100 µM (inactive) in assay [15]; 53.6 µM (inactive) in assay [16]; > 100 µM (inactive) in [17]; > 100 µM (inactive) in [18]. The GI50 in assay [19] is 51.5 µM (inactive); in [20], 40.2 µM (inactive).

`COc1cccc2c1CCc1cc3c(N)nc(N)nc3nc1-2`: the GI50 in [1] was 5.16 µM (inactive); in assay [2] it was 2.55 µM (inactive); in [3], 5.21 µM; in assay [4], 5.4 µM (inactive); in assay [5], 14 µM (inactive); in assay [6], 2.41 µM (inactive). Also, the GI50 in [7] is 2.23 µM (inactive); in [8], 5.47 µM (inactive); in [9], 3.09 µM (inactive); in [10] it was 2.94 µM (inactive); in assay [11], 5.06 µM (inactive); in [12], 5.18 µM (inactive). Further, the GI50 is 16.7 µM (inactive) in assay [13]; 3.31 µM (inactive) in assay [14]; 5.38 µM (inactive) in [15]; 1.79 µM (inactive) in assay [16]; 2.78 µM (inactive) in assay [17]; 5.45 µM (inactive) in assay [18]. Moreover, the values for the GI50 in assay [19] and in [20] were 3.41 µM (inactive) and 7.94 µM (inactive), respectively.
